pKi: −log10 of the molar value.
Legend:
[1] = target: MT1 receptor (Homo sapiens, UniProt P48039); experiment: Melatonin MT1 receptor binding study; details: 2-[125I]-iodomelatonin radioligand
Protocol: (§1) The MT1 or MT2 receptor binding experiments are carried out using 2-[^125I]-iodomelatonin as reference radioligand. The radioactivity retained is determined using a liquid scintillation counter.
(§2) Competitive binding experiments are then carried out in triplicate using the various test compounds. A range of different concentrations is tested for each compound. The results enable the binding affinities of the compounds tested (Ki) to be determined.

[2] = target: T1, MT2 receptor (Homo sapiens, UniProt P49286); experiment: Melatonin MT2 receptor binding study; details: 2-[125I]-iodomelatonin radioligand
T1 sequence (P49286 1-362): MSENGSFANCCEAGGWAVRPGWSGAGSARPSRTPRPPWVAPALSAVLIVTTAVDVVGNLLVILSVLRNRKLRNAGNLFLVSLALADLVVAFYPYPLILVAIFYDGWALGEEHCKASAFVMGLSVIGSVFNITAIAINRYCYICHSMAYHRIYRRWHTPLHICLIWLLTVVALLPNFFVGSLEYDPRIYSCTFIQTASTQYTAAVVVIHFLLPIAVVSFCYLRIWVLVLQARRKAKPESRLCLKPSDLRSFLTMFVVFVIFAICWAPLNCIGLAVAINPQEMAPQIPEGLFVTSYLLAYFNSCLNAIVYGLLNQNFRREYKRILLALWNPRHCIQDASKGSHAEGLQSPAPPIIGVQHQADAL
Protocol: as §1, §2

[3] = target: T2, human 5-HT2C receptor (Homo sapiens, UniProt P28335); experiment: Serotoninergic 5-HT2C receptor binding study; details: CHO cell membranes, [3H]-mesulergine (1 nM)
T2 construct: expressed in transfected cells
T2 sequence (P28335 33-458): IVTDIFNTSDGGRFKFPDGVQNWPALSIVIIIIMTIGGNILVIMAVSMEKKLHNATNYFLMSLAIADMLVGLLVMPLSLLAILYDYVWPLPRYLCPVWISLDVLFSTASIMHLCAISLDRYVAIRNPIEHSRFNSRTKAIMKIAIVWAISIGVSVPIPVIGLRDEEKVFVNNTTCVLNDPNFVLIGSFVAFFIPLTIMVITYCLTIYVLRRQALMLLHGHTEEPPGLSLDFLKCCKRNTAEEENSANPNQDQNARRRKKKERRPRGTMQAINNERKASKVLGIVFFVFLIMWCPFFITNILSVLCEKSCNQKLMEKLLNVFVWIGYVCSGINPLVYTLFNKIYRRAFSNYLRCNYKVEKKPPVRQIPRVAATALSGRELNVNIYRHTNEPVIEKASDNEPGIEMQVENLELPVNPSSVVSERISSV
Protocol: The affinity of the compounds for the human 5-HT2C receptor is evaluated on membrane preparations from CHO cells stably expressing that receptor.
Incubation is carried out in 50 mM TRIS buffer, pH 7.4, containing 10 mM MgCl2 and
0.1% BSA, in the presence of [^3H]-mesulergine (1 nM) and 25 fmol/ml of receptor. Non-specific binding is determined in the presence of 10 μM mianserin.
The reaction is stopped by the addition of 50 mM TRIS buffer, pH 7.4, followed by a filtration step and 3 successive rinses: the radioactivity bound to the membranes remaining on the filters (GF/B pretreated with 0.1% PEI) is determined by liquid scintillation counting.

Chain of MT1 receptor (P48039 whole entry): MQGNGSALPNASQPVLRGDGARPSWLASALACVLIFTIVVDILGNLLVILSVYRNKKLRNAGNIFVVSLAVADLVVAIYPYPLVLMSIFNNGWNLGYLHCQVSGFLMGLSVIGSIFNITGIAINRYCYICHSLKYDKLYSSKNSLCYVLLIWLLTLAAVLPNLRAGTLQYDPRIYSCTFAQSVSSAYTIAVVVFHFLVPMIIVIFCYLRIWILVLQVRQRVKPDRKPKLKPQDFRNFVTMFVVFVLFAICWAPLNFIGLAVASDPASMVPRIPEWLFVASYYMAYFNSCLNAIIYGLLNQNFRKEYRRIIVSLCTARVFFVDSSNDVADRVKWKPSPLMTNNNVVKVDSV

pKi [1]: 10.00
pKi [2]: 9.70
pKi [3]: 5.22
Structure (SMILES): COc1ccc2cccc(C(CF)CNC(C)=O)c2c1 (stereo not drawn) [Example 5, N-[3-Fluoro-2-(7-methoxy-1-naphthyl)propyl]acetamide]
